From the NIST ThermoML archive (doi:10.1016/j.jct.2014.12.017)
± gives the expanded uncertainty stated by the source.

experiment: wn = mass fraction of the nth substance listed; conditions: 297.15 K; 101 kPa; Liquid; Alternating current cell with electrodes; w1 = 0.1

Row | Structure (SMILES) | electrical conductivity
1 | CCCCn1cc[n+](C)c1.N#CN=C=[N-] [1-butyl-3-methylimidazolium dicyanamide] + O | 1.9 ± 0.019 S/m
2 | C[n+]1ccn(CCO)c1.[Cl-] [1-(2-hydroxyethyl)-3-methyl-1H-imidazolium chloride] + O | 4.19 ± 0.04 S/m
3 | CCCCn1cc[n+](C)c1.[Br-] [1-butyl-3-methylimidazolium bromide] + O | 2.87 ± 0.03 S/m
4 | Cn1cc[n+](CCO)c1.[Br-] [3-(2-hydroxyethyl)-1-methyl-1H-imidazolium bromide] + O | 3.58 ± 0.04 S/m
5 | CCCCn1cc[n+](C)c1.O=S(=O)([O-])O [1-butyl-3-methylimidazolium hydrogen sulfate] + O | 7.63 ± 0.08 S/m
6 | CCCCn1cc[n+](C)c1.[O-][Cl+3]([O-])([O-])[O-] [1-butyl-3-methylimidazolium perchlorate] + O | 2.18 ± 0.02 S/m
7 | CCCCn1cc[n+](C)c1.[Cl-] [1-butyl-3-methylimidazolium chloride] + O | 3.43 ± 0.03 S/m
8 | CCCCn1cc[n+](C)c1.COS(=O)(=O)[O-] [1-butyl-3-methylimidazolium methyl sulfate] + O | 1.727 ± 0.017 S/m
9 | CCCCn1cc[n+](C)c1.O=S(=O)([O-])C(F)(F)F [1-butyl-3-methylimidazolium trifluoromethanesulfonate] + O | 1.38 ± 0.014 S/m
